{"source": "ChEMBL document CHEMBL1122254", "about": "“Sulfonyliminoimidazolidines. A new class of oral hypoglycemic agents. 1. 1-[[p-[2-(acylamino)ethyl]phenyl]sulfonyl]-2-iminoimidazolidines” (1983)", "assay_type_in_all_cases": "functional", "key": {"Rattus norvegicus [1]": {"tested_on": "Rattus norvegicus", "assay": "Compound evaluated for hypoglycemic activity by lowering blood glucose in streptozotocin-diabetic rats by 20% after oral administration; Highest dose tested; Inactive(less than 10% blood sugar decrease)"}, "Rattus norvegicus [2]": {"tested_on": "Rattus norvegicus", "assay": "Hypoglycemic activity by lowering blood glucose in normal rats by 20% after oral administration."}, "Rattus norvegicus [3]": {"tested_on": "Rattus norvegicus", "assay": "Compound evaluated for hypoglycemic activity by lowering blood glucose in normal rats by 20% after oral administration; inactive (less than 10% blood sugar decrease)"}, "Rattus norvegicus [4]": {"tested_on": "Rattus norvegicus", "assay": "Hypoglycemic activity by lowering blood glucose in normal rats by 50% after oral administration."}, "Rattus norvegicus [5]": {"tested_on": "Rattus norvegicus", "assay": "Compound evaluated for hypoglycemic activity by lowering blood glucose in streptozotocin-diabetic rats by 20% after oral administration; Highest dose tested"}, "Rattus norvegicus [6]": {"tested_on": "Rattus norvegicus", "assay": "Compound evaluated for hypoglycemic activity by lowering blood glucose in normal rats by 20% after oral administration"}, "Rattus norvegicus [7]": {"tested_on": "Rattus norvegicus", "assay": "Compound evaluated for hypoglycemic activity by lowering blood glucose in streptozotocin-diabetic rats by 20% after oral administration; Inactive(less than 10% blood sugar decrease)"}, "Rattus norvegicus [8]": {"tested_on": "Rattus norvegicus", "assay": "Compound evaluated for hypoglycemic activity by lowering blood glucose in normal rats by 50% after oral administration"}, "Rattus norvegicus [9]": {"tested_on": "Rattus norvegicus", "assay": "Compound evaluated for hypoglycemic activity by lowering blood glucose in normal rats by 20% after oral administration (highest dose tested)"}, "Rattus norvegicus [10]": {"tested_on": "Rattus norvegicus", "assay": "Compound evaluated for hypoglycemic activity by lowering blood glucose in normal rats by 20% after oral administration; highest dose tested;inactive(less than 10% blood sugar decrease)"}, "Rattus norvegicus [11]": {"tested_on": "Rattus norvegicus", "assay": "Compound evaluated for hypoglycemic activity by lowering blood glucose in normal rats by 50% after oral administration; inactive(less than 10% blood sugar decrease)"}, "Rattus norvegicus [12]": {"tested_on": "Rattus norvegicus", "assay": "Compound evaluated for hypoglycemic activity by lowering blood glucose in streptozotocin-diabetic rats by 20% after oral administration"}, "Rattus norvegicus [13]": {"tested_on": "Rattus norvegicus", "assay": "Compound evaluated for hypoglycemic activity by lowering blood glucose in normal rats by 20% after oral administration; Inactive (less than 10% blood sugar decrease)"}}, "data": [{"molecule": "C[S+]([O-])CC(=O)NCCc1ccc(S(=O)(=O)N2CCN(C3CCCCC3)C2=N)cc1", "note": "(stereo not given)", "values": [{"measurement": "ED20", "setting": "Rattus norvegicus [1]", "result": "> 0.66", "unit": "mmol/kg"}, {"measurement": "ED20", "setting": "Rattus norvegicus [2]", "result": 0.12, "unit": "mmol/kg"}]}, {"molecule": "Cc1ncsc1C(=O)NCCc1ccc(S(=O)(=O)N2CCN(C3CCCCC3)C2=N)cc1", "values": [{"measurement": "ED20", "setting": "Rattus norvegicus [3]", "result": "> 0.22", "unit": "mmol/kg"}]}, {"molecule": "CN(C)C(C(=O)NCCc1ccc(S(=O)(=O)N2CCN(C3CCCCC3)C2=N)cc1)c1ccccc1", "note": "(stereo not given)", "values": [{"measurement": "ED50", "setting": "Rattus norvegicus [4]", "result": 170, "unit": "µmol/kg"}, {"measurement": "ED20", "setting": "Rattus norvegicus [5]", "result": "> 0.55", "unit": "mmol/kg"}, {"measurement": "ED20", "setting": "Rattus norvegicus [2]", "result": 0.037, "unit": "mmol/kg"}]}, {"molecule": "N=C1N(C2CCCCC2)CCN1S(=O)(=O)c1ccc(CCNC(N)=O)cc1", "values": [{"measurement": "ED20", "setting": "Rattus norvegicus [1]", "result": "> 0.76", "unit": "mmol/kg"}, {"measurement": "ED20", "setting": "Rattus norvegicus [2]", "result": 0.39, "unit": "mmol/kg"}]}, {"molecule": "N=C1N(C2CCCCC2)CCN1S(=O)(=O)c1ccc(CCNC(=O)c2ccc[n+]([O-])c2)cc1", "values": [{"measurement": "ED20", "setting": "Rattus norvegicus [6]", "result": 0.042, "unit": "mmol/kg"}, {"measurement": "ED20", "setting": "Rattus norvegicus [7]", "result": "> 0.64", "unit": "mmol/kg"}]}, {"molecule": "CCCCNC(=O)NS(=O)(=O)c1ccc(C)cc1", "note": "[TOLBUTAMIDE]", "values": [{"measurement": "ED20", "setting": "Rattus norvegicus [6]", "result": 0.056, "unit": "mmol/kg"}, {"measurement": "ED20", "setting": "Rattus norvegicus [7]", "result": "> 1", "unit": "mmol/kg"}, {"measurement": "ED50", "setting": "Rattus norvegicus [8]", "result": 300, "unit": "µmol/kg"}]}, {"molecule": "N=C1N(C2CCCCC2)CCN1S(=O)(=O)c1ccc(CCNC(=O)c2ccccn2)cc1", "values": [{"measurement": "ED20", "setting": "Rattus norvegicus [9]", "result": "> 0.83", "unit": "mmol/kg"}]}, {"molecule": "CCC[S+]([O-])CC(=O)NCCc1ccc(S(=O)(=O)N2CCN(C3CCCCC3)C2=N)cc1", "note": "(stereo not given)", "values": [{"measurement": "ED20", "setting": "Rattus norvegicus [1]", "result": "> 0.62", "unit": "mmol/kg"}, {"measurement": "ED20", "setting": "Rattus norvegicus [2]", "result": 0.071, "unit": "mmol/kg"}]}, {"molecule": "N=C1N(C2CCCCC2)CCN1S(=O)(=O)c1ccc(CCNC(=O)c2ccccc2)cc1", "values": [{"measurement": "ED20", "setting": "Rattus norvegicus [6]", "result": 0.021, "unit": "mmol/kg"}, {"measurement": "ED50", "setting": "Rattus norvegicus [8]", "result": 200, "unit": "µmol/kg"}]}, {"molecule": "N=C(N)NC(=N)NCCc1ccccc1", "note": "[PHENFORMIN]", "values": [{"measurement": "ED20", "setting": "Rattus norvegicus [10]", "result": "> 1", "unit": "mmol/kg"}, {"measurement": "ED50", "setting": "Rattus norvegicus [11]", "result": "> 1000", "unit": "µmol/kg"}, {"measurement": "ED20", "setting": "Rattus norvegicus [12]", "result": 0.16, "unit": "mmol/kg"}]}, {"molecule": "CC[S+]([O-])CCC(=O)NCCc1ccc(S(=O)(=O)N2CCN(C3CCCCC3)C2=N)cc1", "note": "(stereo not given)", "values": [{"measurement": "ED50", "setting": "Rattus norvegicus [4]", "result": 200, "unit": "µmol/kg"}, {"measurement": "ED20", "setting": "Rattus norvegicus [5]", "result": "> 0.62", "unit": "mmol/kg"}, {"measurement": "ED20", "setting": "Rattus norvegicus [2]", "result": 0.031, "unit": "mmol/kg"}]}, {"molecule": "COCC(=O)NCCc1ccc(S(=O)(=O)N2CCN(C3CCCCC3)C2=N)cc1", "values": [{"measurement": "ED20", "setting": "Rattus norvegicus [13]", "result": "> 0.92", "unit": "mmol/kg"}]}]}
